Target: T1, MDMX (Homo sapiens, UniProt O15151)
T1 construct: gene MDM4
T1 sequence (O15151 1-110 limits assumed): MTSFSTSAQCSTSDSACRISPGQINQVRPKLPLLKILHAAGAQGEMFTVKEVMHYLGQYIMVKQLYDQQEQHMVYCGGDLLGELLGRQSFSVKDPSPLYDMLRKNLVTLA
Assay: SPR (Biacore T200), multicycle kinetics
Assay type: binding
Conditions: read-out: MDMX / K D

Kd: 0.593 µM
SMILES: COC(CCCCCCC(C)C)C(=O)N[C@@H](Cc1ccccc1)C(=O)O (stereo partly shown) [P5]

Source: article PMC12368481, “Discovery of a Phenylalanine‐Derived Natural Compound as a Potential Dual Inhibitor of MDM2 and MDMX” (Chemmedchem, 2025)
